From ChEMBL document CHEMBL1201862, “PubChem BioAssay data set” (2004)
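Protocol summary: plate cells (96-well), add compound at 5 concentrations, incubate 48 h, interpolate endpoints linearly. GI50 is the concentration that inhibits growth by half.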 Active and inactive are the calls of the source. Rule as the data show it: active = GI50 up to about 1.1 µM and inactive = higher.

Columns and labels:
Test in all cases: DTP human tumour cell line panel, 48 h
[1] = test system: ACHN
[2] = test system: HCT-15
[3] = test system: NCI-H23
[4] = test system: OVCAR-3
[5] = test system: U-251
[6] = test system: EKVX
[7] = test system: UACC-257
[8] = test system: SNB-78
[9] = test system: CAKI-1
[10] = test system: DMS-114
[11] = test system: COLO 205
[12] = test system: SK-OV-3
[13] = test system: TK-10
[14] = test system: HCC 2998
[15] = test system: HL-60
[16] = test system: M19-MEL
[17] = test system: KM-20L2
[18] = test system: HOP-62
[19] = test system: SW-620
[20] = test system: SF-295
[21] = test system: A549
[22] = test system: CCRF-CEM
[23] = test system: SNB-75
[24] = test system: K562
[25] = test system: 786-0
[26] = test system: RPMI-8226
[27] = test system: LXFL 529
[28] = test system: DMS-273
[29] = test system: SK-MEL-5
[30] = test system: SK-MEL-28
[31] = test system: HT-29
[32] = test system: SNB-19
[33] = test system: MOLT-4
[34] = test system: RXF 631
[35] = test system: SN12C
[36] = test system: XF498
[37] = test system: OVCAR-8
[38] = test system: HOP-18
[39] = test system: HCT-116
[40] = test system: OVCAR-4
[41] = test system: LOX IMVI
[42] = test system: SF-539
[43] = test system: IGROV-1
[44] = test system: HOP-92
[45] = test system: A498
[46] = test system: RXF 393
[47] = test system: NCI-H460
[48] = test system: UACC-62
[49] = test system: M14
[50] = test system: KM12
[51] = test system: Malme-3M
[52] = test system: OVCAR-5
[53] = test system: UO-31
[54] = test system: SF-268
[55] = test system: SK-MEL-2
[56] = test system: DLD-1
[57] = test system: SR
[58] = test system: NCI-H522
[59] = test system: NCI-H226

Measured: GI50

CC(=O)NCc1c(C(N)=O)ncn1Cc1ccccc1
inactive: [1] > 100 µM | [3] > 100 µM | [4] > 100 µM | [5] > 100 µM | [6] > 100 µM | [7] > 100 µM | [8] > 100 µM | [9] > 100 µM | [10] > 100 µM | [11] > 100 µM | [12] > 100 µM | [13] > 100 µM | [14] > 100 µM | [15] > 100 µM | [16] > 100 µM | [17] > 100 µM | [18] > 100 µM | [19] > 100 µM | [20] > 100 µM | [21] > 100 µM | [22] > 100 µM | [23] > 100 µM | [24] > 100 µM | [25] > 100 µM | [26] > 100 µM | [27] > 100 µM | [28] > 100 µM | [29] > 100 µM | [30] > 100 µM | [31] > 100 µM | [32] > 100 µM | [33] > 100 µM | [34] > 100 µM | [35] > 100 µM | [36] > 100 µM | [37] > 100 µM | [38] > 100 µM | [39] > 100 µM | [40] > 100 µM | [41] > 100 µM | [42] > 100 µM | [43] > 100 µM | [44] > 100 µM | [45] > 100 µM | [46] > 100 µM | [47] > 100 µM | [48] > 100 µM | [49] > 100 µM
> 100 µM: [2]

COc1ccc2[nH]c3c(c2c1)[C@H](C)C[C@@H]1C(=O)N(c2ccccc2)C(=O)[C@H]31
inactive: [1] 37.8 µM | [50] 17.8 µM | [51] 26.6 µM | [3] 22.3 µM | [4] 24 µM | [5] 15.5 µM | [6] 23.9 µM | [7] 56.1 µM | [52] 91.8 µM | [9] 33 µM | [10] 33.8 µM | [11] 51.3 µM | [12] 20.5 µM | [53] 36.2 µM | [13] 31.3 µM | [14] 39.4 µM | [15] > 100 µM | [16] 36.7 µM | [17] 62.8 µM | [18] 24 µM | [19] 32.4 µM | [20] 26 µM | [21] 27.4 µM | [22] 32.5 µM | [23] 21.4 µM | [54] 26.6 µM | [24] 46 µM | [55] 42.7 µM | [25] 22.8 µM | [56] 43.3 µM | [27] 29.6 µM | [28] 37.8 µM | [29] 39.4 µM | [30] > 100 µM | [32] 29.4 µM | [33] 20.6 µM | [34] 20.5 µM | [35] 27.1 µM | [36] 24.5 µM | [37] 17.8 µM | [38] 20.9 µM | [39] 20.3 µM | [40] 20.7 µM | [57] 26.2 µM | [41] 25.2 µM | [42] 21.2 µM | [43] 31.8 µM | [44] 14.9 µM | [58] 16.1 µM | [45] 20.6 µM | [46] 29.6 µM | [47] 26.2 µM | [48] 44.1 µM | [49] 35.6 µM
35.2 µM: [2]

O=C(O)c1ccccc1[Se][Se]c1ccccc1C(=O)O
55.1 µM: [2]
inactive: [1] > 100 µM | [50] 26.8 µM | [51] 47.2 µM | [3] 47.5 µM | [4] 51.1 µM | [5] 40.8 µM | [59] 1.9 µM | [7] 49.5 µM | [9] 61.8 µM | [10] 32.3 µM | [11] > 100 µM | [12] 85.5 µM | [53] 2.73 µM | [13] > 100 µM | [14] 89.7 µM | [15] 35.9 µM | [16] 41.4 µM | [17] 25.8 µM | [18] 29.7 µM | [19] > 100 µM | [20] 28.4 µM | [21] 51.1 µM | [22] 56 µM | [23] 29.5 µM | [54] 40.2 µM | [24] > 100 µM | [55] 44.4 µM | [25] 75.2 µM | [26] 66.2 µM | [56] > 100 µM | [28] 66.1 µM | [29] > 100 µM | [30] 38.1 µM | [31] 35.1 µM | [32] 11.2 µM | [33] 43.8 µM | [34] 28.4 µM | [35] 53 µM | [36] 70 µM | [37] 43.5 µM | [38] 23.2 µM | [39] 37.4 µM | [41] 24.1 µM | [42] 23.4 µM | [43] 51.6 µM | [44] 39 µM | [58] 37.9 µM | [45] 95.7 µM | [46] 38.3 µM | [47] 30.8 µM | [48] 27.5 µM | [49] 72.9 µM
